Laboratory results taken from paper PMC10377034, “Syntheses of 25-Adamantyl-25-alkyl-2-methylidene-1α,25-dihydroxyvitamin D3 Derivatives with Structure–Function Studies of Antagonistic and Agonistic Active Vitamin D Analogs” (Biomolecules, 2023).
Where two headings read alike, the source gives them in different places. Blank lines part the entries; values can stand above or below the molecule they belong to.

Assays:
hVDR = target: T1, hVDR (Homo sapiens, UniProt P11473); experiment: VDR transactivation luciferase reporter assay in HEK293 cells (SPP×3-tk-LUC); format: cell-based; settings: for Transcriptional activity efficacy: 1,25(OH)2D3 = 100%; for Emax / EC50: this study; for Emax: read-out: Transcriptional Activity % Efficacy of That of 1 (converted); for EC50: read-out: Transcriptional Activity EC50
T1 construct: expressed in transfected cells; host or cells: HEK293
T1 sequence (P11473 1-427): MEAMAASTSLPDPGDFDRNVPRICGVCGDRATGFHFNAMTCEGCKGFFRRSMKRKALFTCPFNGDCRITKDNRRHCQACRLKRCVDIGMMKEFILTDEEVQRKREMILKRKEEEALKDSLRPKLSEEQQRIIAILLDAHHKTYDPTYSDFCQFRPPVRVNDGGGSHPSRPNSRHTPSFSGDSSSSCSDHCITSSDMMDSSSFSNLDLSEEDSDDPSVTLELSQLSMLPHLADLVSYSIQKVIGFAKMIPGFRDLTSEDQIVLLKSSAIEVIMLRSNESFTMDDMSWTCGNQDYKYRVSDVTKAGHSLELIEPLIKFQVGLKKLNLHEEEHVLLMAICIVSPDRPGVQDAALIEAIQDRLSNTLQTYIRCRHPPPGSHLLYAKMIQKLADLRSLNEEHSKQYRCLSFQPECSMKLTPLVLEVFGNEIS
Description: The transcriptional activity of the 25-alkylvitamin D analogs on the VDR was evaluated via a luciferase reporter assay in HEK293 human kidney cells transfected with an hVDR expression vector and a luciferase reporter with mouse osteopontin vitamin D response elements (VDREs, SPP×3-tk-LUC).
Transfections of 50 ng of TK-Spp × 3-LUC reporter plasmid, 10 ng of pCMX-β-galactosidase, and 15 ng of pCMX-VDR for each well of a 96-well plate were performed in HEK293 cells using the calcium phosphate coprecipitation method, as described previously. The mammalian two-hybrid assay for cofactor interaction with VDR used 50 ng of TK-MH100(UAS) × 3- LUC reporter plasmid, 10 ng of pCMX-β-galactosidase, 15 ng of pCMX-GAL4-RXRα, pCMX-GAL4-SRC1, or pCMX-GAL4-NCoR, and 15 ng of pCMX-VP16-VDR for each well of a 96-well plate. Luciferase and β-galactosidase activities were measured with a luminometer and a microplate reader (Molecular Devices, Sun Jose, CA, USA), respectively. Luciferase values were normalized to the internal β-galactosidase control.
HEK293 cells were co-transfected with TK-Spp × 3-LUC reporter plasmid and pCMX−VDR, and 8 h after transfection the cells were treated with several concentrations of each compound. After 24 h, the cells were harvested for assaying luciferase and β-galactosidase activity using a luminometer (Molecular Devices, Sunnyvale, CA, USA).

[1] = test system: human dedifferentiated fat (DFAT) cells; experiment: Osteogenic differentiation assay: ALP activity in human DFAT cells; format: cell-based; settings: osteogenic medium, 100 nM, 7 days, natural hormone 1 = 100%
Description: Mature adipocytes from the adipose tissue of mammals such as humans and rodents can be dedifferentiated into pluripotent cells using ceiling culture. Dedifferentiated fat (DFAT) cells have potential applications in both regenerative medicine and injury healing, as well as mesenchymal stem cells, embryonic stem cells, and induced pluripotent stem cells. The osteogenic activity of vitamin D derivatives was assessed based on alkaline phosphatase (ALP) activity.
Samples of human subcutaneous adipose tissue were obtained from patients who underwent surgery in the Department of Pediatric Surgery at Nihon University Itabashi Hospital (Tokyo, Japan). The patients gave their written informed consent, and the Ethics Committee of Nihon University School of Medicine approved this study. We prepared dedifferentiated fat (DFAT) cells using the ceiling culture method, as described previously. Briefly, the adipose tissue (approximately 1 g) was cut into small pieces and digested with a 0.1% type I collagenase solution (Koken Co., Ltd., Tokyo, Japan). […] The cells that adhered to the upper surface of the flasks were cultured for conversion to dedifferentiated fat cells. […] Cells at passages 2–4 were used for differentiation experiments.
Cells were grown to confluency in 24-well plates and incubated for a week in DMEM containing 10% FBS, 100 nM dexamethasone (Merk), 10 mM β-glycerophosphate (Merk), and […] L-ascorbic acid-2-phosphate (Merk), with 100 nM of each compound. The induction medium was replaced on day 4. The alkaline phosphatase (ALP) activity in the cell lysates was determined on day 7 with a lab assay ALP kit (Fujifilm wako). The total protein content was determined with the BCA protein assay kit (Thermo Fisher Scientific). ALP levels were normalized to the total protein content.

recombinant hVDR-LBD [2] = target: T2, recombinant hVDR-LBD (Homo sapiens, UniProt P11473); settings: relative to 1,25(OH)2D3
T2 sequence (P11473 140-427): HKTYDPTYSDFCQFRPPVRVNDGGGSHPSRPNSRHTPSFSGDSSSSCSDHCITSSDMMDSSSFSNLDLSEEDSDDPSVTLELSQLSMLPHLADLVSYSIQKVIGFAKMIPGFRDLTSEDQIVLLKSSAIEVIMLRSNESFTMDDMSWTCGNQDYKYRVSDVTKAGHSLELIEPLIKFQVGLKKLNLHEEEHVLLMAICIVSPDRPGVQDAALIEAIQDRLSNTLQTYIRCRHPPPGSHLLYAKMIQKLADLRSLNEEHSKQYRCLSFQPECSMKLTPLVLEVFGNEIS
Description: (§1) The pGEX-hVDR and pGEX were expressed for a GST-VDR fusion protein and a control GST protein, respectively, in Escherichia coli BL21 (Merck, Darmstadt, Germany). The bacteria were lysed by sonication in a sonication buffer (50 mM Tris-HCl, pH 8.0, 50 mM NaCl, 1 mM EDTA, and 1 mM DTT). The supernatant proteins (1 μg) were diluted in a binding buffer (25 mM Tris, pH 7.5, 100 mM KCl, 25 mM DTT, 4 mM CHAPS, pH 7.5) containing bovine serum albumin (100 μg/mL). A solution containing each test compound in 15 μL of EtOH was added to 570 μL of the GST protein solution in each tube. After being vortexed 2–3 times, the mixture was incubated for 30 min at room temperature. […] After being vortexed 2–3 times, the whole mixture was allowed to stand at 4 °C for 20 h, and 400 μL of dextran-coated charcoal solution (Sigma) was added to remove free ligands.
(§2) All values represent the means, and error bars are the standard deviations derived from triplicate assays.

recombinant hVDR-LBD [3] = target: T2, recombinant hVDR-LBD; experiment: biochemical
Description: as §1, §2

[4] = test system: CYP24A1 expression in U937 cells; experiment: CYP24A1 expression (RT-qPCR) in U937 cells; settings: U937 blood cells, 100 nM, 24 h
Description: (§3) SW480 human colon carcinoma cells (American Type Culture Collection, Manassas, VA) and HaCaT immortalized keratinocyte cells (kindly provided by Dr. Tadashi Terui, Department of Dermatology, Nihon University School of Medicine) were cultured in DMEM containing 10% FBS, 100 U/mL penicillin, and 0.1 mg/mL streptomycin. […] All cells were cultured at 37 °C in a humidified atmosphere containing 5% CO2.
(§4) For gene expression analysis, 1 × 10^4 cells per well were plated in a 24-well plate. After 24 h, the cells were treated with an ethanol control or 100 nM of each test compound for 24 h. The total RNAs from the samples were extracted using the acid guanidine thiocyanate phenol/chloroform method [57], and cDNAs were synthesized using the ImProm-II reverse transcription system (Promega, Madison, WI) [43]. Real-time PCR was performed on the ABI PRISM 7000 sequence detection system (Thermo Fisher Scientific, Waltham, MA, USA) using Power SYBR Green PCR master mix (Thermo Fisher Scientific).
(§5) One-way ANOVA followed by Turkey’s multiple comparisons: ※ p < 0.05, ※※ p < 0.01, ※※※ p < 0.001 versus vehicle control.

[5] = test system: CYP24A1 expression in MG63 cells; experiment: CYP24A1 expression (RT-qPCR) in MG63 cells; settings: MG63 bone cells, 100 nM, 24 h
Description: (§6) HEK293 human kidney cells (RIKEN Cell Bank, Tsukuba, Japan) were cultured in Dulbecco’s modified Eagle’s medium (DMEM) (Fujifilm Wako Pure Chemical Corporation, Tokyo, Japan) containing 5% fetal bovine serum (FBS), 100 U/mL penicillin, and 0.1 mg/mL streptomycin (Nacalai Tesque, Kyoto, Japan). SW480 human colon carcinoma cells (American Type Culture Collection, Manassas, VA) and HaCaT immortalized keratinocyte cells (kindly provided by Dr. Tadashi Terui, Department of Dermatology, Nihon University School of Medicine) were cultured in DMEM containing 10% FBS, 100 U/mL penicillin, and 0.1 mg/mL streptomycin. MG63 human osteosarcoma cells (RIKEN Cell Bank) and lung-derived H292 cells (American Type Culture Collection) were cultured in minimum essential medium containing 10% FBS, 100 U/mL penicillin, and 0.1 mg/mL streptomycin. […] All cells were cultured at 37 °C in a humidified atmosphere containing 5% CO2.
(§7) For gene expression analysis, 1 × 10^4 cells per well were plated in a 24-well plate. After 24 h, the cells were treated with an ethanol control or 100 nM of each test compound for 24 h. […] Real-time PCR was performed on the ABI PRISM 7000 sequence detection system (Thermo Fisher Scientific, Waltham, MA, USA) using Power SYBR Green PCR master mix (Thermo Fisher Scientific).

[6] = test system: CYP24A1 expression in H292 cells; experiment: CYP24A1 expression (RT-qPCR) in H292 cells; settings: H292 lung cells, 100 nM, 24 h
Description: as §6, §7

[7] = test system: CYP24A1 expression in SW480 cells; experiment: CYP24A1 expression (RT-qPCR) in SW480 cells; settings: SW480 intestine cells, 100 nM, 24 h
Description: as §6, §7

[8] = test system: CYP24A1 expression in HaCaT cells; experiment: CYP24A1 expression (RT-qPCR) in HaCaT cells; settings: HaCaT skin cells, 100 nM, 24 h
Description: as §3, §4, §5

[9] = test system: CYP24A1 expression in HEK293 cells; experiment: CYP24A1 expression (RT-qPCR) in HEK293 cells; settings: HEK293 kidney cells, 100 nM, 24 h
Description: as §6, §7

VDR with SRC-1 = target: T3, VDR with SRC-1 (Homo sapiens, UniProt P11473); experiment: Mammalian two-hybrid assay, VDR binding to SRC-1
T3 sequence (P11473 1-427): T1 sequence (P11473 1-427)
T3 sequence (Q15788 595-771 partner limits assumed): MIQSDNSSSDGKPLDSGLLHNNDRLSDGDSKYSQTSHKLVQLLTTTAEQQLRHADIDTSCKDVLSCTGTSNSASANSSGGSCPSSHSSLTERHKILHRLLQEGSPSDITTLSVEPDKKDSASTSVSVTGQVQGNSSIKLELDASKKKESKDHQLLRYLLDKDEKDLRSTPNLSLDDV
Description: (§8) We used the expression plasmids pCMX-VDR, pCMX-VP16- VDR, pCMX-GAL4-RXRα, pCMX-GAL4-SRC-1, and pCMX-GAL4- N-CoR, as reported previously [43]. […] We used luciferase reporters: VDR-responsive Sppx3-tk-LUC and GAL4-responsive MH100(UAS) × 4-tk-LUC reporters [43].
(§9) Transfections of 50 ng of TK-Spp × 3-LUC reporter plasmid, 10 ng of pCMX-β-galactosidase, and 15 ng of pCMX-VDR for each well of a 96-well plate were performed in HEK293 cells using the calcium phosphate coprecipitation method, as described previously [43]. The mammalian two-hybrid assay for cofactor interaction with VDR used 50 ng of TK-MH100(UAS) × 3- LUC reporter plasmid, 10 ng of pCMX-β-galactosidase, 15 ng of pCMX-GAL4-RXRα, pCMX-GAL4-SRC1, or pCMX-GAL4-NCoR, and 15 ng of pCMX-VP16-VDR for each well of a 96-well plate. Luciferase and β-galactosidase activities were measured with a luminometer and a microplate reader (Molecular Devices, Sun Jose, CA, USA), respectively. Luciferase values were normalized to the internal β-galactosidase control.
(§10) (B) Effects on the interactions between the VDR and SRC-1. HEK293 cells were co-transfected with CMX-GAL4-SRC-1, CMX-VP16-VDR, and MH100 (UAS) × 4-tk-LUC and were treated with each compound over a range of concentrations. (C) Effects on interactions of the VDR with NCoR-1. HEK293 cells were co-transfected with CMX-GAL4-N-CoR in combination with CMX-VP16-VDR and MH100 (UAS) × 4-tk-LUC and were treated with each compound over a range of concentrations.

VDR with RXRα = target: T4, VDR with RXRα (Homo sapiens, UniProt P11473); experiment: Mammalian two-hybrid assay, interaction of the VDR with RXRα
T4 sequence (P11473 1-427): T1 sequence (P11473 1-427)
T4 sequence (P19793 1-462 partner): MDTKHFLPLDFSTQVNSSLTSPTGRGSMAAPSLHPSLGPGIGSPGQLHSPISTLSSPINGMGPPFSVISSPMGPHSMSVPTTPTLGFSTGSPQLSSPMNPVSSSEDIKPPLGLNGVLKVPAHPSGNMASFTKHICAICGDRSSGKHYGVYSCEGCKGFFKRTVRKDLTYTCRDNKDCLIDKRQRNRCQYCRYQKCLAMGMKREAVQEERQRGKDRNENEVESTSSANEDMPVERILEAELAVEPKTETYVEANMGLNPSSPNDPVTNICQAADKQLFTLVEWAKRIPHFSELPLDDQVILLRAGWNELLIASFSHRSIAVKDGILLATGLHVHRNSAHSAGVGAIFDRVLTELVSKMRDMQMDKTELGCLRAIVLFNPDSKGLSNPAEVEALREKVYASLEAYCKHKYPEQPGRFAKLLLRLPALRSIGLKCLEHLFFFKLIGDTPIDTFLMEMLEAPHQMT
Description: as §8, §9, §10

VDR with NCoR = target: T5, VDR with NCoR (Homo sapiens, UniProt P11473); experiment: Mammalian two-hybrid assay, dissociation of NCoR from the VDR
T5 sequence (P11473 1-427): T1 sequence (P11473 1-427)
Description: as §8, §9, §10

VDR [10] = settings: cited from earlier work; for IC50: literature values, read-out: VDR Affinity IC50; for VDR affinity, % of that of 1: relative to 1,25(OH)2D3 (1)
VDR [11] = settings: literature values, cited from earlier work; for EC50: read-out: Transcriptional Activity EC50
VDR [12] = settings: antagonist activity for 1; read-out: Antagonistic Activity IC50; cited from earlier work

Transcriptional activity efficacy (hVDR): 104%
Emax (hVDR): 104%
EC50 (hVDR): 0.2 nM
VDR affinity, % of that of 1,25(OH)2D3 (recombinant hVDR-LBD [2]): 27%
IC50 (recombinant hVDR-LBD [3]): 1.3 nM
EC50 (VDR with SRC-1): 1.2 nM
EC50 (VDR with RXRα): 1.1 nM
IC50 (VDR with NCoR): 0.5 nM
SMILES: C=C1[C@H](O)CC(=C/C=C2\CCC[C@]3(C)[C@@H]([C@H](C)CC#C[C@](O)(CC)C45CC6CC(CC(C6)C4)C5)CC[C@@H]23)C[C@H]1O [ADKM4, (25S)-25-(1-Adamantyl)-1a,25-dihydroxy-26-methyl-2-methylidene-23-yne-19,27-dinorvitamin D3]
ALP activity [1]: 72.6%
CYP24A1 expression relative to natural hormone 1 [4]: 85.1%
CYP24A1 expression relative to natural hormone 1 [5]: 73.3%
CYP24A1 expression relative to natural hormone 1 [6]: 113%
CYP24A1 expression relative to natural hormone 1 [7]: 126%
CYP24A1 expression relative to natural hormone 1 [8]: 91.9%
CYP24A1 expression relative to natural hormone 1 [9]: 91.5%

SMILES: C=C1/C(=C\C=C2/CCC[C@]3(C)[C@@H]([C@H](C)CC#C[C@@H](O)C45CC6CC(CC(C6)C4)C5)CC[C@@H]23)C[C@@H](O)C[C@@H]1O [ADOR1, 25 S-sdamantyl-23-yne-26,27-dinor-1α,25-dihydroxyvitamin D(3)]
IC50 (VDR [10]): 0.24 nM
Transcriptional Activity % Efficacy of That of 1 (VDR [11]): 87%
EC50 (VDR [11]): 0.03 nM

SMILES: C=C1/C(=C\C=C2/CCC[C@]3(C)[C@@H]([C@H](C)CCCC(C)(C)O)CC[C@@H]23)C[C@@H](O)C[C@@H]1O [1,25(OH)2D3, 1α,25-dihydroxyvitamin D3]
ALP activity [1]: 100%

SMILES: C=C1/C(=C\C=C2/CCC[C@]3(C)[C@@H]([C@H](C)/C=C/[C@@H](O)C4(C(=O)O/C=C\C(=O)OCC)CC4)CC[C@@H]23)C[C@@H](O)C[C@@H]1O [ZK168281]
IC50 (VDR [12]): 50 nM

SMILES: C=C1C[C@H](C[C@@H](C)[C@H]2CC[C@H]3/C(=C/C=C4/C[C@@H](O)C[C@H](O)C4=C)CCC[C@]23C)OC1=O [TEI-9647, (23S)-25-dehydro-1α-hydroxyvitamin D3-26,23-lactone]
IC50 (VDR [10]): 1 nM
EC50 (VDR [11]): 50 nM
IC50 (VDR [12]): 100 nM

SMILES: C=C1[C@H](O)CC(=C/C=C2\CCC[C@]3(C)[C@@H]([C@@H](C)/C=C/C[C@@H](O)C45CC6CC(CC(C6)C4)C5)CC[C@@H]23)C[C@H]1O [ADTT]
IC50 (VDR [10]): 0.13 nM
VDR affinity, % of that of 1 (VDR [10]): 67%
Transcriptional Activity % Efficacy of That of 1 (VDR [11]): 15%
EC50 (VDR [11]): 1 nM
IC50 (VDR [12]): 3 nM

SMILES: C=C1[C@H](O)CC(=C/C=C2\CCC[C@]3(C)[C@@H]([C@@H](C)/C=C/C[C@H](O)CC45CC6CC(CC(C6)C4)C5)CC[C@@H]23)C[C@H]1O [ADMI3, (25S)-26-adamantyl-25-hydroxy-2-methylene-22,23-didehydro-19,27-dinor-20-epi-vitamin D3]
IC50 (VDR [10]): 0.6 nM
VDR affinity, % of that of 1 (VDR [10]): 17%
Transcriptional Activity % Efficacy of That of 1 (VDR [11]): 10%

Transcriptional activity efficacy (hVDR): 101%
Emax (hVDR): 101%
EC50 (hVDR): 0.2 nM
VDR affinity, % of that of 1,25(OH)2D3 (recombinant hVDR-LBD [2]): 67%
IC50 (recombinant hVDR-LBD [3]): 0.6 nM
EC50 (VDR with SRC-1): 0.6 nM
EC50 (VDR with RXRα): 0.1 nM
IC50 (VDR with NCoR): 0.4 nM
SMILES: C=C1[C@H](O)CC(=C/C=C2\CCC[C@]3(C)[C@@H]([C@H](C)CC#C[C@@](C)(O)C45CC6CC(CC(C6)C4)C5)CC[C@@H]23)C[C@H]1O [ADKM2, (25S)-25-(1-Adamantyl)-1α,25-dihydroxy-2-methylidene-23-yne-19,27-dinorvitamin D3]
ALP activity [1]: 98.8%
CYP24A1 expression relative to natural hormone 1 [4]: 77.8%
CYP24A1 expression relative to natural hormone 1 [5]: 63%
CYP24A1 expression relative to natural hormone 1 [6]: 50.1%
CYP24A1 expression relative to natural hormone 1 [7]: 42.3%
CYP24A1 expression relative to natural hormone 1 [8]: 85.6%
CYP24A1 expression relative to natural hormone 1 [9]: 33.2%

SMILES: C=C1/C(=C\C=C2/CCC[C@]3(C)[C@@H]([C@H](C)CC#C[C@H](O)C45CC6CC(CC(C6)C4)C5)CC[C@@H]23)C[C@@H](O)C[C@@H]1O [ADOR2]
IC50 (VDR [10]): 0.6 nM
Transcriptional Activity % Efficacy of That of 1 (VDR [11]): > 52%
EC50 (VDR [11]): 5.7 nM
